Text: (§1) Solubility may be determined by measuring the amount of light transmittance (a light transmittance value) through a simple mixture of the non-volatile silicone fluid and liquid activation enhancer at the same weight/weight concentrations as in a final antiperspirant composition.
as §1, with “Solubility of a liquid activation enhancer in a non-volatile silicone” for “Solubility”, “(light” for “(a light”
The Spectronic Genesys 10 Vis utilizes a tungsten-halogen light source and has a spectral bandwidth of 5 nm, a wavelength range of 325 to 1100 nm, accuracy of ±1 nm and a repeatability of ±0.5 nm. Readouts include absorbance, transmittance and concentration. The spectrophotometer is set to 640 nm wavelength and the percent transmittance mode/readout. Polystyrene spectrometer cuvettes having a 1 cm optical light path and transmittance between ˜340 nm and ˜900 nm are used. One suitable example of a spectrometer cuvette is available from VWR International LLC under Catalog #97000-584 having a 2.5 to 4.5 ml capacity. […] The sample cuvettes are shaken well just prior to taking a light transmittance reading.

Row | light transmittance value | SMILES
1 | about 100% | CCCCCCCCCCCCCC(C)C [isohexadecane]
2 | about 100% | CCCCCCCCCCCCCCCCCC(=O)OCCCC [butyl stearate]

From patent US20150023884A1, “Antiperspirant Spray Devices and Compositions” (The Procter & Gamble Company, priority 2013, published 2015)
